Earlier results on one molecule are cited in patent publication US20100111883A1, “CYCLODEXTRIN FORMULATIONS” (priority 2007, published 2010).

The conditions of data set [1]: HPBCD alone, through the skin; stated as typical.

Regarding `CC(O)COC[C@H]1O[C@@H]2O[C@H]3[C@H](O)[C@@H](O)[C@@H](O[C@H]4[C@H](O)[C@@H](O)[C@@H](O[C@H]5[C@H](O)[C@@H](O)[C@@H](O[C@H]6[C@H](O)[C@@H](O)[C@@H](O[C@H]7[C@H](O)[C@@H](O)[C@@H](O[C@H]8[C@H](O)[C@@H](O)[C@@H](O[C@H]1[C@H](O)[C@H]2O)O[C@@H]8COCC(C)O)O[C@@H]7COCC(C)O)O[C@@H]6COCC(C)O)O[C@@H]5COCC(C)O)O[C@@H]4COCC(C)O)O[C@@H]3COCC(C)O` (stereo partly drawn) [HPBCD, β-cyclodextrin, 2-hydroxypropyl ether], the water solubility entry is on record as “freely water soluble”. The skin penetration result in data set [1] is listed as “about 0.1%”.
